Measurements: ChEMBL document CHEMBL1201862, “PubChem BioAssay data set” (2004)
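These data come from cells grown in 96-well plates and exposed to compound for 48 hours at five concentrations. Here, GI50 denotes the concentration required for 50% inhibition of growth.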 Active and inactive are the calls of the source. Cut-off read from the data, not from the text of the source: active = GI50 up to about 1.1 µM and inactive = higher.

Key:
Assay in all cases: inhibition of tumour cell growth, NCI panel, 48 h
IGROV-1 = test system: IGROV-1
SF-539 = test system: SF-539
UACC-257 = test system: UACC-257
MDA-MB-435 = test system: MDA-MB-435
HOP-62 = test system: HOP-62
RPMI-8226 = test system: RPMI-8226
U-251 = test system: U-251
HCT-116 = test system: HCT-116
A498 = test system: A498
NCI-H226 = test system: NCI-H226
NCI/ADR-RES = test system: NCI/ADR-RES
T47D = test system: T47D
UO-31 = test system: UO-31
SF-295 = test system: SF-295
NCI-H23 = test system: NCI-H23
BT-549 = test system: BT-549
SK-MEL-5 = test system: SK-MEL-5
ACHN = test system: ACHN
SW-620 = test system: SW-620
MDA-MB-231 = test system: MDA-MB-231

Measured: GI50

O=C(NNC(=O)c1csc(NC(=S)NC2CCCCC2)n1)c1ccccc1
inactive: IGROV-1 1.96 µM | SF-539 15 µM | UACC-257 7.96 µM | MDA-MB-435 15.6 µM | HOP-62 14 µM | RPMI-8226 10 µM | U-251 3.71 µM | HCT-116 2.7 µM | A498 38 µM | NCI-H226 7.24 µM | NCI/ADR-RES 4.85 µM | T47D 3.37 µM | UO-31 13.7 µM | SF-295 11 µM | NCI-H23 16.7 µM | BT-549 17.3 µM | SK-MEL-5 6.71 µM | ACHN 11.4 µM | SW-620 10.3 µM | MDA-MB-231 13.5 µM

NC(CC(=O)Nc1cc(C(F)(F)F)ccc1Cl)=NO
inactive: IGROV-1 > 100 µM | SF-539 > 100 µM | UACC-257 > 100 µM | MDA-MB-435 > 100 µM | HOP-62 > 100 µM | RPMI-8226 > 100 µM | U-251 > 100 µM | HCT-116 > 100 µM | A498 > 100 µM | NCI-H226 > 100 µM | NCI/ADR-RES > 100 µM | T47D > 100 µM | UO-31 > 100 µM | SF-295 > 100 µM | NCI-H23 > 100 µM | BT-549 > 100 µM | SK-MEL-5 > 100 µM | ACHN > 100 µM | SW-620 > 100 µM | MDA-MB-231 > 100 µM

CC(=O)N/N=C1\NC(=O)C[C@H]2[C@@H]3CC=C4C[C@@H](OC(C)=O)CC[C@]4(C)[C@H]3CC[C@]12C
inactive: IGROV-1 31 µM | SF-539 7.33 µM | UACC-257 18.7 µM | MDA-MB-435 4.06 µM | HOP-62 13.6 µM | RPMI-8226 24.3 µM | U-251 12.8 µM | HCT-116 67 µM | A498 18.7 µM | NCI-H226 23.8 µM | NCI/ADR-RES 39.4 µM | T47D > 100 µM | UO-31 40.6 µM | SF-295 14.1 µM | NCI-H23 49.9 µM | BT-549 12.4 µM | SK-MEL-5 50.8 µM | ACHN 21.5 µM | SW-620 23.7 µM | MDA-MB-231 18.7 µM

O=c1ccc2c(Cl)cccc2o1
inactive: IGROV-1 > 100 µM | SF-539 > 100 µM | UACC-257 > 100 µM | MDA-MB-435 > 100 µM | HOP-62 > 100 µM | RPMI-8226 > 100 µM | U-251 > 100 µM | HCT-116 > 100 µM | A498 > 100 µM | NCI-H226 > 100 µM | NCI/ADR-RES > 100 µM | T47D 46.7 µM | UO-31 > 100 µM | SF-295 > 100 µM | NCI-H23 > 100 µM | BT-549 > 100 µM | SK-MEL-5 > 100 µM | ACHN > 100 µM | SW-620 > 100 µM | MDA-MB-231 > 100 µM

O=C(O)CCSC(=S)Nc1ccc([N+](=O)[O-])cc1
inactive: IGROV-1 42.9 µM | SF-539 39.5 µM | UACC-257 22.3 µM | MDA-MB-435 24.4 µM | HOP-62 > 94.2 µM | RPMI-8226 27.3 µM | U-251 > 56.2 µM | HCT-116 60.7 µM | A498 > 70.3 µM | NCI-H226 > 75.2 µM | NCI/ADR-RES 40.8 µM | T47D 31.3 µM | UO-31 > 63.1 µM | SF-295 40.5 µM | NCI-H23 > 66.7 µM | BT-549 36.2 µM | SK-MEL-5 20.3 µM | ACHN 33.8 µM | SW-620 > 70.1 µM | MDA-MB-231 > 100 µM

CCOP(=O)(O)C(Nc1ccc(/N=N/c2ccccc2)cc1)c1cccc(C(Nc2ccc(/N=N/c3ccccc3)cc2)P(=O)(O)OCC)c1 (stereo not given)
inactive: IGROV-1 56.5 µM | SF-539 33.9 µM | UACC-257 57 µM | MDA-MB-435 58.7 µM | HOP-62 25.3 µM | RPMI-8226 23.2 µM | U-251 31.2 µM | HCT-116 56.6 µM | A498 23 µM | NCI-H226 > 100 µM | NCI/ADR-RES 76.9 µM | T47D 18.4 µM | UO-31 30 µM | SF-295 24 µM | NCI-H23 71.1 µM | BT-549 45.2 µM | SK-MEL-5 45.1 µM | ACHN 45.9 µM | SW-620 35.2 µM | MDA-MB-231 58.6 µM

CN(C)Cc1ccc(-c2cc3onc(-c4ccccc4)c3c(=O)n2C)cc1
inactive: IGROV-1 36 µM | SF-539 20.3 µM | UACC-257 18.3 µM | MDA-MB-435 19.2 µM | HOP-62 20.7 µM | RPMI-8226 19.4 µM | U-251 22 µM | HCT-116 14.4 µM | A498 22.6 µM | NCI-H226 > 100 µM | NCI/ADR-RES 41.5 µM | T47D 20 µM | UO-31 11.6 µM | SF-295 22.9 µM | NCI-H23 29.6 µM | BT-549 38.5 µM | SK-MEL-5 17.9 µM | ACHN 67.5 µM | SW-620 21.3 µM | MDA-MB-231 28.5 µM
